Reference: US12539292B2, “BRM targeting compounds and associated methods of use” (Arvinas Operations, Inc., priority 2018, dated 2026)
Read-outs that look alike come from different tables or passages of the source.

Molecular target: T1, BRM (Homo sapiens, UniProt P51531)
T1 construct: In-Cell Western Screen of BRM Degradation in SW1573 Cells; endogenous in cells; host or cells: SW1573
Assay: In-cell Western screen of BRM degradation in SW1573 cells (Dmax and DC50)
Format: cell-based
Summary of the method: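 BRM levels were read by LI-COR in-cell Western after two-channel (800/680 nm) immunostaining of fixed, Triton-permeabilised SW1573 cells.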

[1] = BRM degradation, read-out: BRM DC50
[2] = SW1573, % degraded, when tested at the top concentration of between 0.3 and 10 μM, read-out: BRM Dmax (%)
[3] = degradation of BRM, read-out: BRM DC50
[4] = BRM degradation, SW1573 cells, read-out: DC50
[5] = BRM degradation, SW1573 cells, tested at the top concentration of between 0.3 and 10 μM, read-out: Dmax (%) (% degraded)
[6] = BRM degradation, SW1573 cells, when tested at the top concentration of between 0.3 and 10 μM, read-out: Dmax (%) (% degraded)
[7] = target protein degradation, read-out: BRM DC50

T1 sequence (P51531 whole entry): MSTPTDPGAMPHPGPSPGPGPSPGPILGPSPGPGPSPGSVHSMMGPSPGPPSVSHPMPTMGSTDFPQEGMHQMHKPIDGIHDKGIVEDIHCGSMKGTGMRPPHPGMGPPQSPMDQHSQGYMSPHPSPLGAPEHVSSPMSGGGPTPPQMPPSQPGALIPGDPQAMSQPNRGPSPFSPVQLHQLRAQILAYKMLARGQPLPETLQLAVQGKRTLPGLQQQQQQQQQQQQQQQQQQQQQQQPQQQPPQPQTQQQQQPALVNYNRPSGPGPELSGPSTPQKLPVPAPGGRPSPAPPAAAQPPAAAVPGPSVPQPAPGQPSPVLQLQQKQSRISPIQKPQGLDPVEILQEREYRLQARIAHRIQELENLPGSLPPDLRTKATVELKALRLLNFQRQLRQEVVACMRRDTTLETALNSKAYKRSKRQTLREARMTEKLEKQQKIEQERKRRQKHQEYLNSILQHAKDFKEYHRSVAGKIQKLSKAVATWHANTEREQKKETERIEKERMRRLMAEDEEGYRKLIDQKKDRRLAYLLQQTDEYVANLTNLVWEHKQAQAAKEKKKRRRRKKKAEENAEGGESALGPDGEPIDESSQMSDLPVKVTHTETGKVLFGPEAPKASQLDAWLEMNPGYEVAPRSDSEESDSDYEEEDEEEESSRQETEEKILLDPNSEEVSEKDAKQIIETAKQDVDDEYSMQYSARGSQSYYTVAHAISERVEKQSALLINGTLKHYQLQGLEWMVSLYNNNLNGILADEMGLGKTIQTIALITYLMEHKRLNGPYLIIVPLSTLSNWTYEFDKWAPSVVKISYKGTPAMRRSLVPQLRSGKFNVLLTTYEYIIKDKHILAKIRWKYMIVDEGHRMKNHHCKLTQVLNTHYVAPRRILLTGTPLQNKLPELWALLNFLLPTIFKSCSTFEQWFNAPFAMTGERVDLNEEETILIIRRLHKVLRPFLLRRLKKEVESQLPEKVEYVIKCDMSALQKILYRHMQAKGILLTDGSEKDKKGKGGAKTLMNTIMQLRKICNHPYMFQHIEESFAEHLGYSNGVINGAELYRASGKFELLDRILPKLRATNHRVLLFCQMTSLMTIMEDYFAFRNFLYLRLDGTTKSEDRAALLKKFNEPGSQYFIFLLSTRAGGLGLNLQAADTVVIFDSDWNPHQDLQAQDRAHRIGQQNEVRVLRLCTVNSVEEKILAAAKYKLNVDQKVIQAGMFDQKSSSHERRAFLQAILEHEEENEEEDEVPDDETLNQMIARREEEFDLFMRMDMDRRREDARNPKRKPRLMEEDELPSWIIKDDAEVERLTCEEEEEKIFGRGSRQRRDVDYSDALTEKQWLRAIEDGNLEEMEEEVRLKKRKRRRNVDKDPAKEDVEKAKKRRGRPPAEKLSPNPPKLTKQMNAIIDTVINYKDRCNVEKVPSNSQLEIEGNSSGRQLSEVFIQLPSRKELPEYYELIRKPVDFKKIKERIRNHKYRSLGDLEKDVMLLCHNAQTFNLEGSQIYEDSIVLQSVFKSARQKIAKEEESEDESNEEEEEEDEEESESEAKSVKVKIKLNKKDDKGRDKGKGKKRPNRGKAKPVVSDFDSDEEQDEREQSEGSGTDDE

Cc1ncsc1-c1ccc([C@H](C)NC(=O)[C@@H]2C[C@@H](O)CN2C(=O)[C@@H](c2cc(N3CCC(CN4CCC(O[C@H]5C[C@H](Oc6cc(N7C8CCC7CN(c7cc(-c9ccccc9)nnc7N)C8)ccn6)C5)CC4)CC3)no2)C(C)C)cc1 [compound 605, (2S,4R)-1-((2R)-2-(3-(4-((4-((1r,3r)-3-((4-(3-(3-amino-6-phenylpyridazin-4-yl)-3,8-diazabicyclo[3.2.1]octan-8-yl)pyridin-2-yl)oxy)cyclobutoxy)piperidin-1-yl)methyl)piperidin-1-yl)isoxazol-5-yl)-3-methylbutanoyl)-4-hydroxy-N-((S)-1-(4-(4-methylthiazol-5-yl)phenyl)ethyl)pyrrolidine-2-carboxamide]
DC50 (BRM degradation, SW1573 cells, Table 2D): > 30 nM

Cc1ncsc1-c1cnc([C@H](C)NC(=O)[C@@H]2C[C@@H](O)CN2C(=O)[C@@H](c2cc(N3CCC(CN4CCC(O[C@H]5C[C@H](Oc6cc(N7C8CCC7CN(c7cc(-c9ccccc9O)nnc7N)C8)ccn6)C5)CC4)CC3)no2)C(C)C)cn1 [compound 590, (2S,4R)-1-((2R)-2-(3-(4-((4-((1r,3r)-3-((4-(3-(3-amino-6-(2-hydroxyphenyl)pyridazin-4-yl)-3,8-diazabicyclo[3.2.1]octan-8-yl)pyridin-2-yl)oxy)cyclobutoxy)piperidin-1-yl)methyl)piperidin-1-yl)isoxazol-5-yl)-3-methylbutanoyl)-4-hydroxy-N-((S)-1-(5-(4-methylthiazol-5-yl)pyrazin-2-yl)ethyl)pyrrolidine-2-carboxamide]
Dmax (BRM degradation, SW1573 cells, Table 2D, read-out: **Dmax (%) (% degraded)): > 75% | DC50 (BRM degradation, SW1573 cells, Table 2D, read-out: *DC50): < 2.5 nM

Cc1ncsc1-c1ccc([C@H](C)NC(=O)[C@@H]2C[C@@H](O)CN2C(=O)[C@@H](c2cc(OCCN3CCC(O[C@H]4C[C@H](Nc5cc(N6C7CCC6CN(c6cc(-c8ccccc8O)nnc6N)C7)ccn5)C4)CC3)no2)C(C)C)cc1 [compound 493, (2S,4R)-1-((2R)-2-(3-(2-(4-((1r,3R)-3-((4-(3-(3-amino-6-(2-hydroxyphenyl)pyridazin-4-yl)-3,8-diazabicyclo[3.2.1]octan-8-yl)pyridin-2-yl)amino)cyclobutoxy)piperidin-1-yl)ethoxy)isoxazol-5-yl)-3-methylbutanoyl)-4-hydroxy-N-((S)-1-(4-(4-methylthiazol-5-yl)phenyl)ethyl)pyrrolidine-2-carboxamide]
DC50 [1]: < 2.5 nM | Dmax [2]: > 75%

Cc1ncsc1-c1ccc([C@H](C)NC(=O)[C@@H]2C[C@@H](O)CN2C(=O)[C@@H](c2cc(OCCN3CCC(O[C@H]4C[C@H](C#C[C@H](C)n5cc(-c6cc(-c7ccccc7O)nnc6N)cn5)C4)CC3)no2)C(C)C)cc1 [compound 415, (2S,4R)-1-((R)-2-(3-(2-(4-((1S,3R)-3-((S)-3-(4-(3-amino-6-(2-hydroxyphenyl)pyridazin-4-yl)-1H-pyrazol-1-yl)but-1-yn-1-yl)cyclobutoxy)piperidin-1-yl)ethoxy)isoxazol-5-yl)-3-methylbutanoyl)-4-hydroxy-N-((S)-1-(4-(4-methylthiazol-5-yl)phenyl)ethyl)pyrrolidine-2-carboxamide]
Dmax [2]: > 75% | DC50 [3]: < 2.5 nM

CC(C)C(C(=O)N1C[C@H](O)C[C@H]1C(=O)N[C@@H](C)c1ccc(-c2scnc2CO)cc1)c1cc(OCCN2CCN(CCOc3cc(N4C5CCC4CN(c4cc(-c6ccccc6O)nnc4N)C5)ccn3)CC2)no1 (stereo partly drawn) [compound 168, (2S,4R)-1-(2-(3-(2-(4-(2-((4-(3-(3-amino-6-(2-hydroxyphenyl)pyridazin-4-yl)-3,8-diazabicyclo[3.2.1]octan-8-yl)pyridin-2-yl)oxy)ethyl)piperazin-1-yl)ethoxy)isoxazol-5-yl)-3-methylbutanoyl)-4-hydroxy-N-((S)-1-(4-(4-(hydroxymethyl)thiazol-5-yl)phenyl)ethyl)pyrrolidine-2-carboxamide]
DC50 [4]: < 2.5 nM | Dmax [5]: > 75%

Cc1ncsc1-c1ccc(CNC(=O)[C@@H]2C[C@@H](O)CN2C(=O)[C@H](c2cc(OCCN3CCN(CCOCCn4cc(-c5cc(-c6ccccc6O)nnc5N)cn4)CC3)no2)C(C)C)cc1 [compound 165, (2S,4R)-1-((S)-2-(3-(2-(4-(2-(2-(4-(3-amino-6-(2-hydroxyphenyl)pyridazin-4-yl)-1H-pyrazol-1-yl)ethoxy)ethyl)piperazin-1-yl)ethoxy)isoxazol-5-yl)-3-methylbutanoyl)-4-hydroxy-N-(4-(4-methylthiazol-5-yl)benzyl)pyrrolidine-2-carboxamide]
DC50 [4]: > 30 nM | Dmax [5]: < 50%

Cc1cnnn1-c1ccc([C@H](C)NC(=O)[C@@H]2C[C@@H](O)CN2C(=O)[C@@H](c2cc(OCCN3CCN(CCOc4cc(N5C6CCC5CN(c5cc(-c7ccccc7O)nnc5N)C6)ccn4)CC3)no2)C(C)C)cc1 [compound 275, (2S,4R)-1-((2R)-2-(3-(2-(4-(2-((4-(3-(3-amino-6-(2-hydroxyphenyl)pyridazin-4-yl)-3,8-diazabicyclo[3.2.1]octan-8-yl)pyridin-2-yl)oxy)ethyl)piperazin-1-yl)ethoxy)isoxazol-5-yl)-3-methylbutanoyl)-4-hydroxy-N-((S)-1-(4-(5-methyl-1H-1,2,3-triazol-1-yl)phenyl)ethyl)pyrrolidine-2-carboxamide]
DC50 [4]: 10 to 30 nM | Dmax [5]: > 75%

Cc1ncsc1-c1ccc([C@H](C)NC(=O)[C@@H]2C[C@@H](O)CN2C(=O)[C@H](c2cc(N3CCC(O[C@H]4C[C@H](Oc5cc(N6C7CCC6CN(c6cc(-c8ccccc8O)nnc6N)C7)ccn5)C4)CC3)no2)C(C)C)cc1 [compound 403, (2S,4R)-1-((2S)-2-(3-(4-((1r,3S)-3-((4-(3-(3-amino-6-(2-hydroxyphenyl)pyridazin-4-yl)-3,8-diazabicyclo[3.2.1]octan-8-yl)pyridin-2-yl)oxy)cyclobutoxy)piperidin-1-yl)isoxazol-5-yl)-3-methylbutanoyl)-4-hydroxy-N-((S)-1-(4-(4-methylthiazol-5-yl)phenyl)ethyl)pyrrolidine-2-carboxamide]
Dmax [2]: > 75% | DC50 [3]: 2.5 to 10 nM

Cc1ncsc1-c1ccc(CNC(=O)[C@@H]2C[C@@H](O)CN2C(=O)[C@@H](c2cc(CCCOCCOCCOCCOCCn3cc(-c4cc(-c5ccccc5O)nnc4N)cn3)no2)C(C)C)cc1 [compound 26, (2S,4R)-1-[(2R)-2-[3-(1-[4-[3-amino-6-(2-hydroxyphenyl)pyridazin-4-yl]-1H-pyrazol-1-yl]-3,6,9,12-tetraoxapentadecan-15-yl)-1,2-oxazol-5-yl]-3-methylbutanoyl]-4-hydroxy-N-[[4-(4-methyl-1,3-thiazol-5-yl)phenyl]methyl]pyrrolidine-2-carboxamide]
DC50 [4]: 10 to 30 nM | Dmax [6]: > 75%

Cc1ncsc1-c1ccc([C@H](C)NC(=O)[C@@H]2C[C@@H](O)CN2C(=O)[C@@H](c2cc(OCCOCCOc3cc(N4C5CCC4CN(c4cc(-c6ccccc6O)nnc4N)C5)ccn3)no2)C(C)C)cc1 [compound 357, (2S,4R)-1-((2R)-2-(3-(2-(2-((4-(3-(3-amino-6-(2-hydroxyphenyl)pyridazin-4-yl)-3,8-diazabicyclo[3.2.1]octan-8-yl)pyridin-2-yl)oxy)ethoxy)ethoxy)isoxazol-5-yl)-3-methylbutanoyl)-4-hydroxy-N-((S)-1-(4-(4-methylthiazol-5-yl)phenyl)ethyl)pyrrolidine-2-carboxamide]
Dmax [2]: > 75% | DC50 [7]: < 2.5 nM

Cc1ncsc1-c1ccc([C@H](C)NC(=O)[C@@H]2C[C@@H](OP(=O)(O)O)CN2C(=O)[C@@H](c2cc(OCCN3CCC(O[C@H]4C[C@H](Oc5cc(N6C7CCC6CN(c6cc(-c8ccccc8OP(=O)(O)O)nnc6N)C7)ccn5)C4)CC3)no2)C(C)C)cc1 [compound 517, (3R,5S)-1-((2R)-2-(3-(2-(4-((1r,3R)-3-((4-(3-(3-amino-6-(2-(phosphonooxy)phenyl)pyridazin-4-yl)-3,8-diazabicyclo[3.2.1]octan-8-yl)pyridin-2-yl)oxy)cyclobutoxy)piperidin-1-yl)ethoxy)isoxazol-5-yl)-3-methylbutanoyl)-5-(((S)-1-(4-(4-methylthiazol-5-yl)phenyl)ethyl)carbamoyl)pyrrolidin-3-yl dihydrogen phosphate]
DC50 [1]: < 2.5 nM | Dmax [2]: > 75%

Cc1ncsc1-c1ccc([C@H](C)NC(=O)[C@@H]2C[C@@H](O)CN2C(=O)[C@@H](c2cc(OCCN3CCN(CCCCN4CCOC5(CCN(c6cc(-c7ccccc7O)nnc6N)CC5)C4)CC3)no2)C(C)C)cc1 [compound 91, (2S,4R)-1-((R)-2-(3-(2-(4-(4-(9-(3-amino-6-(2-hydroxyphenyl)pyridazin-4-yl)-1-oxa-4,9-diazaspiro[5.5]undecan-4-yl)butyl)piperazin-1-yl)ethoxy)isoxazol-5-yl)-3-methylbutanoyl)-4-hydroxy-N-((S)-1-(4-(4-methylthiazol-5-yl)phenyl)ethyl)pyrrolidine-2-carboxamide]
DC50 [4]: < 2.5 nM | Dmax [6]: > 75%

Cc1ncsc1-c1ccc([C@H](C)NC(=O)[C@@H]2C[C@@H](O)CN2C(=O)[C@@H](c2cc(OCCN3CCC(O[C@H]4C[C@H](Oc5cnnc(N6C7CCC6CN(c6cc(-c8ccccc8O)nnc6N)C7)c5)C4)CC3)no2)C(C)C)cc1 [compound 471, (2S,4R)-1-((2R)-2-(3-(2-(4-((1r,3R)-3-((6-(3-(3-amino-6-(2-hydroxyphenyl)pyridazin-4-yl)-3,8-diazabicyclo[3.2.1]octan-8-yl)pyridazin-4-yl)oxy)cyclobutoxy)piperidin-1-yl)ethoxy)isoxazol-5-yl)-3-methylbutanoyl)-4-hydroxy-N-((S)-1-(4-(4-methylthiazol-5-yl)phenyl)ethyl)pyrrolidine-2-carboxamide]
Dmax [2]: > 75% | DC50 [7]: < 2.5 nM
